The subject of this assay is HBV. In words: Photodynamic inactivation of HBV in plasma by methylene blue solution under monochromatic light; HBV DNA in lymphocytes by PCR. The conditions noted are these: for amount of HBV DNA particles in lymphocytes, computed by PCR: HBV containing plasma, 90 minutes. Type of assay: cell-based, human. How it is done: Medical instruments are placed in the cuvette 5 within the aforementioned aqueous solution of methylene blue 6, and the aforementioned door closed. The medical devices in the chamber 4 are then subjected to irradiation by emitters 7 of light energy, such as monochromatic radiation with a maximum specific content of monochromatic light with a wavelength of 590 nm or 660 nm, with a total light output of not less than 280 lm. The exposure time may be set to 90 minutes, e.g., using the aforesaid timer 9. After treatment, in the device 1, the viruses remaining on the medical instruments are completely inactivated, i.e., the viruses lose their ability to infect cells of the human body. Instruments so sterilized are then reliably reused without risk of infecting patients.
Verification steps of the employment of the claimed apparatuses and methods within an installation and carried out on in a biological environment contaminated by viruses, such as blood plasma.
Monochromatic radiation emitters 7 with a range of 590±2 nm are employed. After treatment in the inventive installation method, i.e., within device 1, samples of HBV containing plasma were treated for 90 minutes in a 0.01% solution of methylene blue, and afterward the amount of lymphocytes, computed by Polymerase Chain Reaction (PCR), of HBV DNA particles was zero, i.e., they were not found.
Monochromatic radiation emitters 7 with a range of 590±2 nm are employed. After treatment in the device 1, samples of HBV containing plasma were treated for 90 minutes in a 0.02% solution of methylene blue. As above, the amount of lymphocytes, computed by PCR, of HBV DNA particles were not found.
Monochromatic radiation emitters 7 with a range of 660±2 nm were employed. After treatment in the device 1, as set forth hereinabove, samples of HBV containing plasma were treated for 90 minutes in a 0.01% solution of methylene blue.
Monochromatic radiation emitters 7 with a range of 660±2 nm were employed.

`CN(C)c1ccc2nc3ccc(=[N+](C)C)cc-3sc2c1` [methylene blue]: the HBV inactivation result is on record as “full effect” (0.01% methylene blue solution, emitter range 588-592 nm); “full sterilization treatment effect was reached” (0.01% methylene blue solution, emitter range 658-662 nm); “full effect” (0.02% methylene blue solution, emitter range 588-592 nm); “full effect” (0.02% methylene blue solution, emitter range 658-662 nm). Also, the “amount of HBV DNA particles in lymphocytes, computed by PCR” value reads like this: (0.01% solution of methylene blue, emitters 590±2 nm) “zero”; (0.01% solution of methylene blue, emitters 660±2 nm) “found no HBV DNA particles”; (0.02% solution of methylene blue, emitters 590±2 nm) “not found”; (0.02% solution of methylene blue, emitters 660±2 nm) “no lymphocytes, computed by PCR, of the HBV DNA particles were found”.

The record behind these values is patent US20200101182A1, “METHODS FOR INACTIVATING, ON MEDICAL INSTRUMENTS AND DEVICES, VIRUSES CONTAINING RNA AND DNA, AND APPARATUSES FOR IMPLEMENTATING SAME” (priority 2014, published 2020).
